The data set deals with human dermal fibroblasts. Briefly: Effect of surfactant combined with control nanoparticles on fibroblasts. Type of data set: cell-based. The note with it: for toxicity to fibroblasts: combined with control nanoparticles, human dermal fibroblasts. As for the experimental part: FIG. 1 is a graph showing the effect of dodecyl sulfate combined with control nanoparticles against human dermal fibroblasts.
The control nanoparticles were added to the wells as an emulsion having 5% solid content, which reduced the amount of surfactant to 0.75%; therefore, more surfactant was added to the emulsion prior to placement in the cell-containing wells in order to reach the designated amounts of surfactant being tested. […] This may be due to interactions of the surfactant with the nanoparticles, which may prohibit the surfactant from interacting with the cells.

Results on one molecule are retold here after patent publication US8414926B1, “Nanoparticles with covalently bound surfactant for drug delivery” (University of South Florida, priority 2006, dated 2013).

SMILES strings stand for the structures. Counter-ions that a name gives are not always drawn.

On to `CCCCCCCCCCCCOS(=O)(=O)O` [dodecyl sulfate], for which the toxicity to fibroblasts result (1% surfactant) was “least toxic” and the toxicity to fibroblasts result (9% surfactant) is “kills all of the cells”. Also, the “toxicity to fibroblasts combined with control nanoparticles versus without control nanoparticles” value (healthy fibroblasts) is “much less toxic”.
